Laboratory results published in the Kinase Knowledgebase extract (Sharma et al. 2016).
pIC50: −log10 of the molar value.

Target: PIK3CG (human) (UniProt P48736)
Assay: Inhibition of PIK3CG Kinase Activity

PIK3CG (human), sequence (P48736 whole entry, looked up): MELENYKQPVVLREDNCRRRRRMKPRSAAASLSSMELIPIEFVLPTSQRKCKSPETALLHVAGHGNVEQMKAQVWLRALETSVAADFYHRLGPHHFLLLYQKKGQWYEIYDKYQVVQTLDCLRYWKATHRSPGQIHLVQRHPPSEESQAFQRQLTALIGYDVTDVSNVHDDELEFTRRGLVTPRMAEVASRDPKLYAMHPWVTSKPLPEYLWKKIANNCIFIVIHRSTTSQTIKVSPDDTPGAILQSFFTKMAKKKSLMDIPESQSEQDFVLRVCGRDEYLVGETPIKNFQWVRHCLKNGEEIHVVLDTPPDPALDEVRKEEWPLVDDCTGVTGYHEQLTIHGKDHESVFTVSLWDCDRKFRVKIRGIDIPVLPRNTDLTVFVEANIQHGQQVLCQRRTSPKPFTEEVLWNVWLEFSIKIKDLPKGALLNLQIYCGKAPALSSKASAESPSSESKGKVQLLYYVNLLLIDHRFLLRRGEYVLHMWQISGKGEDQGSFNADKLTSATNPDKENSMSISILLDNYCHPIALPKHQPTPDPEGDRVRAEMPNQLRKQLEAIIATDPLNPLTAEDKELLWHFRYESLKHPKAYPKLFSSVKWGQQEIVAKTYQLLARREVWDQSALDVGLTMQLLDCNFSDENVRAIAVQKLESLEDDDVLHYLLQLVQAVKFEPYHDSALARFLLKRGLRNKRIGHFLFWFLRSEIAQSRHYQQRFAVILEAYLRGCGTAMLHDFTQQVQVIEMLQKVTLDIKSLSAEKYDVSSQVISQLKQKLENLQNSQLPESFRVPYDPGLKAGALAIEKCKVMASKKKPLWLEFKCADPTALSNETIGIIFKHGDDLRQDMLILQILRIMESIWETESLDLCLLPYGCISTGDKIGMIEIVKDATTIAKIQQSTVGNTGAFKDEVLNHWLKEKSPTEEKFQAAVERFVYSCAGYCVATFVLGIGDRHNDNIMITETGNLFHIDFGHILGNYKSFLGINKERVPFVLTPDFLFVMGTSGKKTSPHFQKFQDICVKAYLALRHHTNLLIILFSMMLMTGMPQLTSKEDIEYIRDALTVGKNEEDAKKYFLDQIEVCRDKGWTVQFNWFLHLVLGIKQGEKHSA

pIC50, > 6.22:
CC(=O)Nc1nc2c(s1)-c1c(c(C3CCCC3)nn1-c1ccc(C(=O)NC3CCN(CC4CCCC4)CC3)cc1Cl)CC2
CC(=O)Nc1nc2c(s1)-c1c(c(C3CC3)nn1-c1ccc(C(=O)NC3CCN(C4CCCCC4)CC3)cc1C)CC2
CC(=O)Nc1nc2c(s1)-c1c(c(C3CC3)nn1-c1ccc(CC(=O)NC3CCCCC3)cc1Cl)CC2
CC(=O)Nc1nc2c(s1)-c1c(c(C3(C)CC3)nn1-c1ccccc1Cl)CC2
CC(=O)Nc1nc2c(s1)-c1c(c(C3CC3)nn1[C@H]1CC[C@H](C(=O)NC3CCN(C4CCCC4)CC3)CC1)CC2
CC(=O)Nc1nc2c(s1)-c1c(c(C3CC3)nn1C1CCN(C(=O)[C@H]3CC[C@@H](N4CCCC4)CC3)CC1)CC2
CCN(C(=O)c1ccc(-n2nc(C3CC3)c3c2-c2sc(NC(C)=O)nc2CC3)cc1F)[C@H]1CC[C@@H](N2CCCC2)CC1
CC(=O)Nc1nc2c(s1)-c1c(c(C3CC3)nn1-c1ccccc1Br)CC2
CC(=O)Nc1nc2c(s1)-c1c(c(C3CC3)nn1-c1ccc(C(=O)N[C@H]3CC[C@@H](N(C)CC4CCCC4)CC3)cc1C)CC2
CC(=O)Nc1nc2c(s1)-c1c(c(C3CC3)nn1-c1ccc(C(=O)N(C)C3CCN(CC4CCCC4)CC3)c(Cl)c1)CC2
CC(=O)Nc1nc2c(s1)-c1c(c(C3CCCC3)nn1-c1ccc(C(=O)N[C@H]3CC[C@@H](N4CCCCC4)CC3)cc1Cl)CC2
CC(=O)Nc1nc2c(s1)-c1c(c(C3CC3)nn1-c1ccc(C(=O)N[C@@H]3CCN(CC4CCCC4)C3)c(C)c1)CC2
CC(=O)Nc1nc2c(s1)-c1c(c(C3CC3)nn1-c1ccc(C(=O)NC3CCN(C4CCCC4)CC3)c(C)c1)CC2
CC(=O)Nc1nc2c(s1)-c1c(c(C3CC3)nn1-c1ccc(C(=O)NC[C@@H]3CCNC3)c(Cl)c1)CC2
CC(=O)Nc1nc2c(s1)-c1c(c(C3CC3)nn1-c1ccc(C(=O)N(C)[C@H]3CC[C@@H](N4CCCCC4)CC3)c(C)c1)CC2
CC(=O)Nc1nc2c(s1)-c1c(c(C3CC3)nn1-c1ccc(C(=O)N(C)CC3CCN(C4CCCC4)CC3)cc1Cl)CC2
CC(=O)Nc1nc2c(s1)-c1c(c(C3CC3)nn1-c1ccc(C(=O)NC3CCN(CC4CCCCC4)CC3)c(F)c1)CC2
CCN(C(=O)c1ccc(-n2nc(C3CC3)c3c2-c2sc(NC(C)=O)nc2CC3)c(C)c1)[C@H]1CC[C@@H](N2CCCC2)CC1
CC(=O)Nc1nc2c(s1)-c1c(c(C3CC3)nn1-c1ccc(C(=O)NC[C@@H]3CCCN3C3CCCC3)c(Cl)c1)CC2
CC(=O)Nc1nc2c(s1)-c1c(c(C3CC3)nn1-c1ccc(CC(=O)N[C@H]3CC[C@@H](N4CCCC4)CC3)cc1Cl)CC2
CC(=O)Nc1nc2c(s1)-c1c(c(C3CC3)nn1-c1ccc(C(=O)N[C@H]3CC[C@@H](N4CCCC4)CC3)cc1C)CC2
CC(=O)Nc1nc2c(s1)-c1c(c(C3CC3)nn1-c1ccc(C(=O)N[C@@H]3CCN(C4CCCC4)C3)c(F)c1)CC2
CC(=O)Nc1nc2c(s1)-c1c(c(C3CC3)nn1-c1ccc(C(=O)NC3CCN(C4CCCCC4)CC3)cc1F)CC2
CC(=O)Nc1nc2c(s1)-c1c(c(C3CC3)nn1-c1ccc(C(=O)N3CC[C@H](CN4CCCC4)C3)c(Cl)c1)CC2
CC(=O)Nc1nc2c(s1)-c1c(c(C3CC3)nn1-c1ccc(C(=O)NCC3CCN(CC4CCCC4)CC3)cc1Cl)CC2
CC(=O)Nc1nc2c(s1)-c1c(c(C3CCCC3)nn1-c1ccccc1Cl)CC2
CCCN1CCC(NC(=O)C2CCC(n3nc(C4CC4)c4c3-c3sc(NC(C)=O)nc3CC4)CC2)CC1 (stereo not drawn)
CC(=O)Nc1nc2c(s1)-c1c(c(C3CC3)nn1-c1ccc(C(=O)N(C)C[C@@H]3CCN(C4CCCC4)C3)c(Cl)c1)CC2
CC(=O)Nc1nc2c(s1)-c1c(c(C3CC3)nn1-c1ccc(C(=O)NC3CCN(C4CCCC4)CC3)cc1Cl)CC2
CC(=O)Nc1nc2c(s1)-c1c(c(C3CC3)nn1-c1ccc(C(=O)N(C)C3CCC(N4CCCC4)CC3)cc1Cl)CC2 (stereo not drawn)
CC(=O)Nc1nc2c(s1)-c1c(c(C3(C)CC3)nn1-c1ccc(C(=O)N[C@H]3CC[C@@H](N4CCCCC4)CC3)cc1Cl)CC2
CC(=O)Nc1nc2c(s1)-c1c(c(C3CC3)nn1C1CCN(C(=O)N3CCN(C4CCCC4)CC3)CC1)CC2
CCCN1CC[C@@H](NC(=O)c2ccc(-n3nc(C4CC4)c4c3-c3sc(NC(C)=O)nc3CC4)cc2F)C1
CC(=O)Nc1nc2c(s1)-c1c(c(C3CC3)nn1-c1ccc(C(=O)N[C@H]3CC[C@@H](N4CCCCC4)CC3)c(C)c1)CC2
CC(=O)Nc1nc2c(s1)-c1c(c(C3CC3)nn1-c1ccc(C(=O)N(C)[C@@H]3CCN(CC4CCCC4)C3)c(C)c1)CC2
CC(=O)Nc1nc2c(s1)-c1c(c(C3CC3)nn1C1CCN(C(=O)C3CCN(C4CCCC4)CC3)CC1)CC2
CCCN1CCC(NC(=O)c2ccc(-n3nc(C4CC4)c4c3-c3sc(NC(C)=O)nc3CC4)cc2Cl)CC1
CC(=O)Nc1nc2c(s1)-c1c(c(C3CCCC3)nn1-c1ccc(C(=O)NC3CCN(C4CCOCC4)CC3)cc1Cl)CC2
CC(=O)Nc1nc2c(s1)-c1c(c(C3(C)CC3)nn1-c1ccc(C(=O)NC3CCN(CC4CCCC4)CC3)cc1Cl)CC2
CC(=O)Nc1nc2c(s1)-c1c(c(C3CC3)nn1-c1ccc(C(=O)N(C)[C@@H]3CCN(CC4CCCC4)C3)c(Cl)c1)CC2
CC(=O)Nc1nc2c(s1)-c1c(c(C3CC3)nn1-c1ccc(C(=O)N[C@H]3CC[C@@H](N(C)CC4CC4)CC3)c(Cl)c1)CC2
CC(=O)Nc1nc2c(s1)-c1c(c(C3CC3)nn1-c1ccc(CC(=O)N(C)[C@H]3CC[C@@H](N4CCCC4)CC3)cc1Cl)CC2
CC(=O)Nc1nc2c(s1)-c1c(c(C3CC3)nn1-c1ccc(C(=O)N(C)[C@H]3CCN(C4CCCCC4)C3)cc1C)CC2
CC(=O)Nc1nc2c(s1)-c1c(c(C3CC3)nn1-c1ccc(C(=O)N[C@H]3CC[C@@H](N(C)CC4CCCC4)CC3)c(F)c1)CC2
CC(=O)Nc1nc2c(s1)-c1c(c(C3CC3)nn1C1CCN(C(=O)C3CCN(CC4CCCC4)CC3)CC1)CC2
CC(=O)Nc1nc2c(s1)-c1c(c(C3CC3)nn1-c1ccc(C(=O)N[C@H]3CC[C@@H](N(C)CC4CC4)CC3)c(F)c1)CC2
CCCN1CCC(NC(=O)c2ccc(-n3nc(C4CC4)c4c3-c3sc(NC(C)=O)nc3CC4)c(F)c2)CC1
CC(=O)Nc1nc2c(s1)-c1c(c(C3CC3)nn1-c1ccc(C(=O)NC[C@@H]3CCN(CC4CCCC4)C3)c(Cl)c1)CC2
CC(=O)Nc1nc2c(s1)-c1c(c(C3(C)CC3)nn1-c1ccc(C(=O)N[C@H]3CC[C@@H](N4CCCC4)CC3)cc1Cl)CC2
CC(=O)Nc1nc2c(s1)-c1c(c(C3CC3)nn1-c1ccc(C(=O)NC[C@@H]3CCCN3CC3CCCC3)c(Cl)c1)CC2
CC(=O)Nc1nc2c(s1)-c1c(c(C3CC3)nn1-c1ccc(C(=O)N(C)[C@H]3CCN(C4CCCCC4)C3)cc1Cl)CC2
CC(=O)Nc1nc2c(s1)-c1c(c(C3CC3)nn1C1CCN(C(=O)N3CCC(N4CCCC4)CC3)CC1)CC2
CC(=O)Nc1nc2c(s1)-c1c(c(C3CC3)nn1-c1ccc(C(=O)N[C@@H]3CCN(C4CCCC4)C3)cc1C)CC2
CC(=O)Nc1nc2c(s1)-c1c(c(C3CC3)nn1-c1ccc(C(=O)NC3CCN(CC4CCCCC4)CC3)c(C)c1)CC2
CNC(=O)c1ccc(-n2nc(C3CCC3)c3c2-c2sc(NC(C)=O)nc2CC3)c(Cl)c1
CC(=O)Nc1nc2c(s1)-c1c(c(C3CC3)nn1-c1ccc(C(=O)N[C@@H]3CCN(C4CCCCC4)C3)c(F)c1)CC2
CC(=O)Nc1nc2c(s1)-c1c(c(C3CC3)nn1-c1ccc(C(=O)N3CCC(N4CCCC4)CC3)c(C)c1)CC2
CC(=O)Nc1nc2c(s1)-c1c(c(C3CC3)nn1-c1ccc(C(=O)N(C)[C@@H]3CCN(C4CCCC4)C3)c(C)c1)CC2
CC(=O)Nc1nc2c(s1)-c1c(c(C3CC3)nn1-c1ccc(C(=O)N[C@H]3CC[C@@H](C(N)=O)CC3)cc1Cl)CC2
CC(=O)Nc1nc2c(s1)-c1c(c(C3CC3)nn1C1CCN(C(=O)C3CCCCC3)CC1)CC2
CC(=O)Nc1nc2c(s1)-c1c(c(C3CC3)nn1-c1ccc(C(=O)N(C)[C@H]3CCN(C4CCCCC4)C3)c(C)c1)CC2
CC(=O)Nc1nc2c(s1)-c1c(c(C3CC3)nn1-c1ccc(C(=O)NC3CCN(C4CCCCC4)CC3)c(F)c1)CC2
CC(=O)Nc1nc2c(s1)-c1c(c(C3CC3)nn1-c1ccc(C(=O)NC3CCN(CC4CCCC4)CC3)cc1F)CC2
CC(=O)Nc1nc2c(s1)-c1c(c(C3CCCC3)nn1-c1ccc(C(=O)NC3CCN(C(C)C)CC3)cc1Cl)CC2
CC(=O)Nc1nc2c(s1)-c1c(c(C3CC3)nn1-c1ccc(C(=O)NC3CCN(CC4CCCCC4)CC3)cc1Cl)CC2
CC(=O)Nc1nc2c(s1)-c1c(c(C3CC3)nn1-c1ccc(C(=O)N(C)[C@H]3CCN(C4CCCCC4)C3)cc1F)CC2
CC(=O)Nc1nc2c(s1)-c1c(c(C3CC3)nn1-c1ccc(C(=O)NCc3ccncc3)cc1Cl)CC2
CC(=O)Nc1nc2c(s1)-c1c(c(C3CC3)nn1-c1ccc(C(=O)N[C@@H]3CCN(CC4CCCC4)C3)c(F)c1)CC2
